Measurements reported in patent US8012983B2, “Substituted triazolopyrazines useful for the treatment of degenerative and inflammatory diseases” (Galapagos NV, priority 2008, dated 2011).

Test system: MMP1 expression by activated synovial fibroblasts (RASFs)
Experiment: 'MMP assay': complex trigger-induced MMP1 expression by synovial fibroblasts (MMP1 ELISA)
Format: cell-based
Details: Homo sapiens, Fibroblast; RASFs, complex trigger, 48 hrs; read-out: MMP1 IC50
Procedure: A 384-well format ELISA for measurement of MMP1 is developed. Various primary antibodies are tested, as well as various ELISA protocols. The following protocol is developed and validated to measure MMP1 levels in SF supernatant in 384 well plates: white Lumitrac 600 384 well plates (Greiner) are coated with 2 μg/mL anti-MMP1 antibody MAB1346 (Chemicon). The antibody is diluted in buffer 40 (1.21 g Tris base (Sigma), 0.58 g NaCl (Calbiochem) and 5 ml 10% NaN3 (Sigma) in 1 L milliQ water and adjusted to pH 8.5). After overnight incubation at 4° C., plates are washed with PBS (80 g NaCl, 2 g KCl (Sigma), 11.5 g Na2HPO4.7H2O and 2 g KH2PO4 in 10 L milliQ; pH 7.4) and blocked with 100 μL/well Casein buffer (2% Casein (VWR International) in PBS). Next day, casein buffer is removed from ELISA plates and replaced by 50 μL/well EC buffer (4 g casein, 2.13 g Na2HPO4 (Sigma), 2 g bovine albumin (Sigma), 0.69 g NaH2PO4.H2O (Sigma), 0.5 g CHAPS (Roche), 23.3 g NaCl, 4 ml 0,5 M EDTA pH 8 (Invitrogen), 5 ml 10% NaN3 in 1 L milliQ and adjusted to pH 7.0). 0.25 mM DTT (Sigma) is added to the thawed samples plates. After removal of the EC buffer, 20 μL of sample is transferred to the ELISA plates. After overnight incubation at 4° C. plates are washed twice with PBS and once with PBST (PBS with 0.05% Tween-20 (Sigma)) and incubated with 35 μL/well biotinylated anti-MMP1 antibody solution (R&D). This secondary antibody is diluted in buffer C (0.82 g NaH2PO4.H2O, 4.82 g Na2HPO4, 46.6 g NaCl, 20 g bovine albumin and 4 mL 0,5M EDTA pH 8 in 2 L milliQ and adjusted to pH 7.0) at a concentration of 5 μg/mL. After 2 h of incubation at RT, plates are washed as described above and incubated with 50 μL/well streptavidin-HRP conjugate (Biosource). Streptavidin-HRP conjugate is diluted in buffer C at a concentration of 0.25 μg/mL. After 45 min, plates are washed as described above and incubated for 5 min with 50 μL/well BM Chem ELISA Substrate (Roche). Readout is performed on the Luminoscan Ascent Luminometer (Labsystems) with an integration time of 200 msec or with an Envision reader (Perkin Elmer).
The increase of MMP1 expression by SFs upon treatment with cytokines relevant in the field of RA (TNF-α, IL1β and OSM) or a combination thereof is shown in FIG. 2 as white bars. For this experiment, SFs are seeded in 96 well plates, 3,000 cells/well. 24 h later, the medium is changed to M199 medium supplemented with 1% FBS. One day after the medium change, cytokines or combinations thereof are added to the cultures, each cytokine being added to a final concentration of 25 ng/mL. 72 h after cytokine addition, the supernatant is collected and processed in the MMP1 ELISA as described in the protocol given above. In parallel with this experiment, SFs are triggered, using the same protocol, with the supernatant of THP1 cells (2-fold diluted in M199+1% FBS) treated with the same cytokines or combinations of cytokines for 48 h in M199 medium+1% FBS. The induction of the MMP1 expression by SFs triggered with the supernatants of TNF-α-treated THP1 cells is stronger (>4.5 fold induction) as compared to the SFs triggered with recombinant TNF-α alone (3-fold induction) and almost equals the 5-fold induction obtained by a mixture of 3 purified cytokines (TNF-α, IL1βb, OSM). […] As the role of TNF-α in the RA pathogenesis is validated (TNF-α-blockers such as Infliximab and Etanercept show some efficacy in the treatment of RA patients) and the THP-1 cells are representative for monocytes/macrophages present in the joint of RA patients, the TNF-α-based trigger mixture prepared by contacting THP-1 cells with TNF-α will contain factors present in the joints of RA patients and subsequently is relevant to RA. This TNF-α-based complex trigger, further referred to as the ‘complex trigger’, will further be used as basis for the ‘MMP assay’. […]

## CC(C)N1C[C@@H]2C[C@H]1CN2c1ccc(Nc2ncc(-c3cc(C(N)=O)n[nH]3)n3ncnc23)cn1 [Compound 15, 5-{8-(6-((1S,4S)-5-isopropyl-2,5-diazabicyclo[2.2.1]heptan-2-yl)pyridin-3-ylamino)-[1,2,4]triazolo[1,5-a]pyrazin-5-yl}-1H-pyrazole-3-carboxylic acid amide]
  IC50: > 1000 nM

## CCOC(=O)c1cc(-c2cnc(Nc3ccc(N4C[C@@H]5C[C@H]4CN5C(C)C)cc3)c3ncnn23)[nH]n1 [Compound 21, Ethyl 5-(8-(4-((1S,4S)-5-isopropyl-2,5-diazabicyclo[2.2.1]heptan-2-yl)phenylamino)-[1,2,4]triazolo[1,5-a]pyrazin-5-yl)-1H-pyrazole-3-carboxylate]
  IC50: > 1000 nM

## CCOc1cc(-c2cnc(Nc3ccc(N4C[C@@H]5C[C@H]4CN5C(C)C)cc3)c3ncnn23)ccn1 [Compound 19, 5-(2-ethoxypyridin-4-yl)-N-(4-((1S,4S)-5-isopropyl-2,5-diazabicyclo[2.2.1]heptan-2-yl)phenyl)-[1,2,4]triazolo[1,5-a]pyrazin-8-amine]
  IC50: > 1000 nM

## CC(C)N1C[C@@H]2C[C@H]1CN2c1ccc(Nc2ncc(-c3coc(C(N)=O)c3)n3ccnc23)cc1 [Compound 4, 4-{8-[4-((1S,4S)-5-Isopropyl-2,5-diaza-bicyclo[2.2.1]hept-2-yl)-phenylamino]-imidazo[1,2-a]pyrazin-5-yl}-furan-2-carboxamide]
  IC50: > 1000 nM

## CCOc1cc(-c2cnc(Nc3ccc(N4C[C@@H]5C[C@H]4CN5C(C)C)cc3)c3nccn23)ccn1 [Compound 22, 5-(2-ethoxypyridin-4-yl)-N-(4-((1S,4S)-5-isopropyl-2,5-diazabicyclo[2.2.1]heptan-2-yl)phenyl)imidazo[1,2-a]pyrazin-8-amine]
  IC50: > 1000 nM

## CC(C)N1C[C@@H]2C[C@H]1CN2c1ccc(Nc2ncc(-c3noc(C(N)=O)n3)n3ncnc23)cc1 [Compound 23, 3-(8-(4-((1S,4S)-5-isopropyl-2,5-diazabicyclo[2.2.1]heptan-2-yl)phenylamino)-[1,2,4]triazolo[1,5-a]pyrazin-5-yl)-1,2,4-oxadiazole-5-carboxamide]
  IC50: > 1000 nM

## CC(C)N1C[C@@H]2C[C@H]1CN2c1cccc(Nc2ncc(-c3coc(C(N)=O)c3)n3ccnc23)c1 [Compound 25, 4-(8-(3-((1S,4S)-5-isopropyl-2,5-diazabicyclo[2.2.1]heptan-2-yl)phenylamino)imidazo[1,2-a]pyrazin-5-yl)furan-2-carboxamide]
  IC50: > 1000 nM

## CC(C)N1C2CCC1CN(c1ccc(Nc3ncc(-c4coc(C(N)=O)c4)n4ncnc34)cc1)C2 [Compound 12, 4-{8-(4-(8-isopropyl-3,8-diazabicyclo[3.2.1]octan-3-yl)phenylamino)[1,2,4]-triazolo[1,5-a]pyrazin-5-yl}-furan-2-carboxamide]
  IC50: > 1000 nM

## CC(C)N1C[C@@H]2C[C@H]1CN2c1cccc(Nc2ncc(-c3coc(C(N)=O)c3)n3ncnc23)c1 [Compound 24, 4-(8-(3-((1S,4S)-5-isopropyl-2,5-diazabicyclo[2.2.1]heptan-2-yl)phenylamino)-[1,2,4]triazolo[1,5-a]pyrazin-5-yl)furan-2-carboxamide]
  IC50: > 1000 nM

## CC(C)N1C[C@@H]2C[C@H]1CN2c1ccc(Nc2ncc(-c3cc(C(N)=O)n[nH]3)n3ncnc23)cc1 [Compound 5, 5-{8-(4-((1S,4S)-5-isopropyl-2,5-diazabicyclo[2.2.1]heptan-2-yl)phenyl-amino)-[1,2,4]triazolo[1,5-a]pyrazin-5-yl}-1H-pyrazole-3-carboxamide]
  IC50: 1 to 1000 nM

## CC(C)N1C[C@@H]2C[C@H]1CN2c1cccc(Nc2ncc(-c3ccc4c(c3)CNC4=O)n3ncnc23)c1 [Compound 26, 5-(8-(3-((1S,4S)-5-isopropyl-2,5-diazabicyclo[2.2.1]heptan-2-yl)phenylamino)-[1,2,4]triazolo[1,5-a]pyrazin-5-yl)isoindolin-1-one]
  IC50: > 1000 nM

## CC(C)(C)N1C[C@@H]2C[C@H]1CN2c1ccc(Nc2ncc(-c3coc(C(N)=O)c3)n3ncnc23)cc1 [Compound 3, 4-{8-[4-((1S,4S)-5-tert-Butyl-2,5-diaza-bicyclo[2.2.1]hept-2-yl)-phenylamino]-[1,2,4]triazolo[1,5-a]pyrazin-5-yl}-furan-2-carboxamide]
  IC50: > 1000 nM

## CC(C)N1CC2CCC1CN2c1ccc(Nc2ncc(-c3coc(C(N)=O)c3)n3ncnc23)cc1 (centres unmarked) [Compound 9, 4-{8-(4-(5-isopropyl-2,5-diazabicyclo[2.2.2]octan-2-yl)phenylamino)[1,2,4]-triazolo[1,5-a]pyrazin-5-yl}-furan-2-carboxamide]
  IC50: 1 to 1000 nM

## CC(C)N1CC2CCC(C1)N2c1ccc(Nc2ncc(-c3coc(C(N)=O)c3)n3ccnc23)cc1 [Compound 11, 4-{8-(4-(3-isopropyl-3,8-diazabicyclo[3.2.1]octan-8-yl)phenylamino)-imidazo[1,2-a]pyrazin-5-yl}-furan-2-carboxamide]
  IC50: > 1000 nM

## CC(C)N1C[C@@H]2C[C@H]1CN2c1ccc(Nc2ncc(-c3cc[nH]c(=O)c3)n3ncnc23)cc1 [Compound 20, 4-(8-(4-((1S,4S)-5-isopropyl-2,5-diazabicyclo[2.2.1]heptan-2-yl)phenylamino)-[1,2,4]triazolo[1,5-a]pyrazin-5-yl)pyridin-2(1H)-one]
  IC50: > 1000 nM

## CC(C)(C)N1C[C@@H]2C[C@H]1CN2c1ccc(Nc2ncc(-c3cc(C(N)=O)n[nH]3)n3ncnc23)cc1 [Compound 17, 5-{8-(4-((1S,4S)-5-tert-butyl-2,5-diazabicyclo[2.2.1]heptan-2-yl)phenyl-amino)-[1,2,4]triazolo[1,5-a]pyrazin-5-yl}-1H-pyrazole-3-carboxylic acid amide]
  IC50: > 1000 nM

## CC(C)N1C[C@@H]2C[C@H]1CN2c1ccc(Nc2ncc(-c3cc[nH]c(=O)c3)n3ccnc23)cc1 [Compound 8, 4-{8-(4-((1S,4S)-5-isopropyl-2,5-diazabicyclo[2.2.1]heptan-2-yl)phenyl-amino)imidazo[1,2-a]pyrazin-5-yl}-1H-pyridin-2-one]
  IC50: 1 to 1000 nM

## CC(C)(C)N1C[C@@H]2C[C@H]1CN2c1ccc(Nc2ncc(-c3coc(C(N)=O)c3)n3ccnc23)cc1 [Compound 6]
  IC50: > 1000 nM

## CC(C)N1C[C@@H]2C[C@H]1CN2c1ccc(Nc2ncc(-c3ccc4c(c3)CNC4=O)n3ncnc23)cn1 [Compound 18, 5-{8-(6-((1S,4S)-5-isopropyl-2,5-diazabicyclo[2.2.1]heptan-2-yl)pyridin-3-ylamino)-[1,2,4]triazolo[1,5-a]pyrazin-5-yl}-2,3-dihydro-isoindol-1-one]
  IC50: > 1000 nM

## CC(C)(C)N1C[C@@H]2C[C@H]1CN2c1ccc(Nc2ncc(-c3ccc4c(c3)CNC4=O)n3ncnc23)cc1 [Compound 16, 5-{8-(4-((1S,4S)-5-tert-butyl-2,5-diazabicyclo[2.2.1]heptan-2-yl)phenylamino)-[1,2,4]triazolo-[1,5-a]pyrazin-5-yl}-2,3-dihydro-isoindol-1-one]
  IC50: > 1000 nM
